{"source": "patent US20090318403A1", "about": "“ANTIBIOTIC COMPOSITION” (Prosensa Technologies B.V., priority 2006, published 2009)", "type_in_all_cases": "cell-based", "key": {"[1]": {"test_system": "P. aeruginosa clinical isolate PA7243", "assay": "Growth inhibition (MIC) of clinical P. aeruginosa isolate PA7243", "settings": "Pseudomonas aeruginosa, isolate PA7243, 10^4 bacteria in 20% LB, 20 h"}, "[2]": {"test_system": "P. aeruginosa clinical isolate PA7252", "assay": "Growth inhibition (MIC) of clinical P. aeruginosa isolate PA7252", "settings": "Pseudomonas aeruginosa, isolate PA7252, 10^4 bacteria in 20% LB, 20 h"}, "[3]": {"test_system": "multidrug-resistant Acinetobacter baumannii LUH5771", "assay": "Growth inhibition of multidrug-resistant A. baumannii LUH5771", "settings": "for Susceptibility of the isolate to treatment: multi-resistant A. baumannii clinical isolate"}, "[4]": {"test_system": "P. aeruginosa clinical isolate PA7249", "assay": "Growth inhibition (MIC) of clinical P. aeruginosa isolate PA7249", "settings": "Pseudomonas aeruginosa, isolate PA7249, 10^4 bacteria in 20% LB, 20 h"}, "[5]": {"test_system": "Pseudomonas aeruginosa PA01", "assay": "Growth inhibition (MIC, OD550 after 20 h) of P. aeruginosa PA01", "settings": "for MIC of antibiotic alone: antibiotic alone (Table 1); for MIC of antibiotic: PA01, inoculum 10^4 bacteria in 20% LB, after 20 h, antibiotic alone (Table 3); for MIC: Pseudomonas aeruginosa"}, "[6]": {"test_system": "P. aeruginosa clinical isolate PA7247", "assay": "Growth inhibition (MIC) of clinical P. aeruginosa isolate PA7247", "settings": "Pseudomonas aeruginosa, isolate PA7247, 10^4 bacteria in 20% LB, 20 h"}, "[7]": {"test_system": "P. aeruginosa clinical isolate PA7253", "assay": "Growth inhibition (MIC) of clinical P. aeruginosa isolate PA7253", "settings": "Pseudomonas aeruginosa, isolate PA7253, 10^4 bacteria in 20% LB, 20 h"}, "[8]": {"assay": "Sensitizer effect of short lipoamines (our studies)", "description": "R1 in formula I represents a linear or branched alkyl group comprising at least 7 atoms in a straight chain. In this context alkyl group means that it is a group containing carbon atoms. For instance, for the lipoamines butylamine, pentylamine and hexylamine as disclosed in JP 57155954 no effect was found in our studies. It is understood that if not specified otherwise, C, O, N and S atoms in the alkyl group further comprise hydrogen atoms to properly satisfy the valency of the respective atom. At least 7 atoms in a straight chain is with respect to the longest group of atoms, not including hydrogen, directly connected to one another by covalent bonds starting from the nitrogen (N) in formula I. Such a group of at least 7 atoms in a straight chain thus can be part of cyclic elements, including aromatic rings, in R1, or in other words, one or more (saturated and/or unsaturated) rings can form (part of) the alkyl group comprising at least 7 atoms in a straight chain. The alkyl group may comprise one or more O, N and/or S atoms, which means that the chain of carbon atoms may be interrupted by one or more O, N and/or S atoms. It is preferred the alkyl group comprises an ω-CH3 group, or in other words starting from the nitrogen (N) in formula I the longest alkyl group preferably ends with a CH3."}, "[9]": {"test_system": "extended β-lactamase (ESBL) producing Klebsiella pneumoniae LUH5344", "assay": "Growth inhibition (MIC) of ESBL producing K. pneumoniae LUH5344", "settings": "K. pneumoniae LUH5344, 100% LB"}, "[10]": {"test_system": "ceftazidime-resistant P. aeruginosa clinical isolate PA 24-7-3", "assay": "Growth inhibition (MIC) of ceftazidime-resistant P. aeruginosa PA 24-7-3", "settings": "Pseudomonas aeruginosa, PA 24-7-3, 20% LB"}, "[11]": {"settings": "PA01, 20% LB, 20 h, sensitizer alone"}}, "note": "Like-named read-outs stand apart in the source and are kept apart here.", "data": [{"molecule": "CC1(C)S[C@@H]2[C@H](NC(=O)[C@H](N)c3ccccc3)C(=O)N2[C@H]1C(=O)O", "note": "[ampicillin]", "values": [{"measurement": "MIC", "setting": "[1]; read-out: MIC ampicillin", "value": "> 200", "unit": "µg/mL"}, {"measurement": "MIC", "setting": "[2]; read-out: MIC ampicillin", "value": "> 200", "unit": "µg/mL"}, {"measurement": "Susceptibility of the isolate to treatment", "setting": "[3]", "value": "resistant"}, {"measurement": "MIC", "setting": "[4]; read-out: MIC ampicillin", "value": "> 200", "unit": "µg/mL"}, {"measurement": "MIC of antibiotic alone", "setting": "[5]; PA01, 20% LB, 20 h", "value": "MIC >200 μg/mL"}, {"measurement": "MIC of antibiotic", "setting": "[5]", "value": ">200", "unit": "µg/mL"}, {"measurement": "MIC", "setting": "[6]; read-out: MIC ampicillin", "value": "> 200", "unit": "µg/mL"}, {"measurement": "MIC", "setting": "[7]; read-out: MIC ampicillin", "value": "> 200", "unit": "µg/mL"}]}, {"molecule": "CCCCN", "note": "[butylamine]", "values": [{"measurement": "Sensitizer effect", "setting": "[8]", "value": "no effect"}]}, {"molecule": "CC(C)(O/N=C(\\C(=O)N[C@@H]1C(=O)N2C(C(=O)[O-])=C(C[n+]3ccccc3)CS[C@H]12)c1csc(N)n1)C(=O)O", "note": "[ceftazidime]", "values": [{"measurement": "MIC", "setting": "[9]; read-out: MIC ceftazidime", "value": 6.25, "unit": "µg/mL"}, {"measurement": "MIC", "setting": "[10]; read-out: MIC ceftazidime", "value": 6.25, "unit": "µg/mL"}]}, {"molecule": "CC(C)c1ccc2c(c1)CC[C@H]1[C@](C)(CN)CCC[C@]21C", "note": "[dehydroabietylamine]", "values": [{"measurement": "MIC of sensitizer alone", "setting": "[5]; [11]", "value": "MIC at ≧20 μM"}]}, {"molecule": "CCCCCCN", "note": "[hexylamine]", "values": [{"measurement": "Sensitizer effect", "setting": "[8]", "value": "no effect"}]}, {"molecule": "CC(=O)NC[C@H]1CN(c2ccc(N3CCOCC3)c(F)c2)C(=O)O1", "note": "[linezolid]", "values": [{"measurement": "MIC of antibiotic alone", "setting": "[5]; PA01, 20% LB, 20 h", "value": "MIC >200 ug/mL μg/mL"}]}, {"molecule": "CCn1cc(C(=O)O)c(=O)c2ccc(C)nc21", "note": "[nalidixic acid]", "values": [{"measurement": "MIC of antibiotic", "setting": "[5]", "value": 25, "unit": "µg/mL"}]}, {"molecule": "CCCCCCCC/C=C\\CCCCCCCCN", "note": "[oleylamine]", "values": [{"measurement": "MIC", "setting": "[1]; read-out: MIC oleylamine", "value": "> 40", "unit": "µM"}, {"measurement": "MIC", "setting": "[2]; read-out: MIC oleylamine", "value": "≥ 40", "unit": "µM"}, {"measurement": "oleylamine bactericidal concentration", "setting": "[3]; A. baumannii LUH5771, oleylamine alone", "value": "at ≧5 μM"}, {"measurement": "Susceptibility of the isolate to treatment", "setting": "[3]", "value": "resistant"}, {"measurement": "MIC", "setting": "[9]; read-out: MIC oleylamine", "value": "≥ 40", "unit": "µM"}, {"measurement": "MIC", "setting": "[10]; read-out: MIC oleylamine", "value": "≥ 20", "unit": "µM"}, {"measurement": "MIC", "setting": "[4]; read-out: MIC oleylamine", "value": "> 40", "unit": "µM"}, {"measurement": "MIC", "setting": "[5]; [11]", "value": "≥ 20", "unit": "µM"}, {"measurement": "MIC", "setting": "[6]; read-out: MIC oleylamine", "value": "≥ 40", "unit": "µM"}, {"measurement": "MIC", "setting": "[7]; read-out: MIC oleylamine", "value": "> 40", "unit": "µM"}]}, {"molecule": "CCCCCN", "note": "[pentylamine]", "values": [{"measurement": "Sensitizer effect", "setting": "[8]", "value": "no effect"}]}, {"molecule": "CCCCCCCCCCCCCCCCCCN", "note": "[stearylamine]", "values": [{"measurement": "MIC", "setting": "[5]; [11]", "value": "≥ 20", "unit": "µM"}]}, {"molecule": "CC/C(=C(\\c1ccccc1)c1ccc(OCCN(C)C)cc1)c1ccccc1", "note": "[tamoxifen]", "values": [{"measurement": "MIC", "setting": "[5]; [11]", "value": "≥ 20", "unit": "µM"}]}, {"molecule": "gentamicin", "values": [{"measurement": "MIC gentamicin", "setting": "[3]; A. baumannii LUH5771, gentamicin alone", "value": ">200", "unit": "µg·mL"}, {"measurement": "Susceptibility of the isolate to treatment", "setting": "[3]", "value": "resistant"}]}]}
